Measured values from patent US20220110917A1 (priority 2018, published 2022).

Key:
[1] = oral administration in suspension; cited from earlier work
[2] = in vivo; cited from earlier work
[3] = human, in vivo, po
[4] = in vivo, po

CC(=O)[C@H]1CC[C@H]2[C@@H]3CC[C@H]4C[C@](C)(O)CC[C@]4(C)[C@H]3CC[C@]12C [ganaxolone]
Tmax [1]: 1.2 to 2.5 h
plasma half-life [1]: approximately 20 h

CC(=O)[C@H]1CC[C@H]2[C@@H]3CC[C@H]4C[C@H](O)CC[C@]4(C)[C@H]3CC[C@]12C [allopregnanolone, 3α, 5α-tetrahydroprogesterone]
half-life [2]: about 35 minutes

Oc1noc2c1CCNC2 [gaboxadol, 4,5,6,7-tetrahydroisoxazolo [5,4-c] pyridine-3-ol]
AUC0-∞ Slope (90% CI), dose proportionality [3]: 0.98 (0.95, 1.01)
Cmax Slope (90% CI), dose proportionality [3]: 0.95 (0.88, 1.02)
residual effect on Choice Reaction Time [4]: did not show residual effect
residual effect on Critical Flicker Fusion [4]: did not show residual effect
residual effects on Body Sway [4]: did not show any signs of residual effects
residual effects on Digit symbol substitution test (DSST) [4]: did not show any signs of residual effects
residual effects on Leeds Sleep Evaluation Questionnaire [4]: did not show any signs of residual effects
residual effects on Memory tests [4]: did not show any signs of residual effects
residual effects on Multiple Sleep Latency Test (MSLT) [4]: did not show any signs of residual effects
residual effects on Tracking [4]: did not show any signs of residual effects

CCN(CC)CCN1C(=O)CN=C(c2ccccc2F)c2cc(Cl)ccc21 [Flurazepam]
residual effect on Choice Reaction Time [4]: showed significant effect
residual effect on Critical Flicker Fusion [4]: showed significant effect
